# Source: patent US7829572B2 (Pfizer Inc, priority 2006, dated 2010)
# pIC50: −log10 of the molar value.
# Target: T1, calcium receptor (CasR) (Homo sapiens, UniProt P41180)
# T1 construct: expressed in transfected cells; host or cells: HEK 293
# T1 sequence (P41180 20-1078): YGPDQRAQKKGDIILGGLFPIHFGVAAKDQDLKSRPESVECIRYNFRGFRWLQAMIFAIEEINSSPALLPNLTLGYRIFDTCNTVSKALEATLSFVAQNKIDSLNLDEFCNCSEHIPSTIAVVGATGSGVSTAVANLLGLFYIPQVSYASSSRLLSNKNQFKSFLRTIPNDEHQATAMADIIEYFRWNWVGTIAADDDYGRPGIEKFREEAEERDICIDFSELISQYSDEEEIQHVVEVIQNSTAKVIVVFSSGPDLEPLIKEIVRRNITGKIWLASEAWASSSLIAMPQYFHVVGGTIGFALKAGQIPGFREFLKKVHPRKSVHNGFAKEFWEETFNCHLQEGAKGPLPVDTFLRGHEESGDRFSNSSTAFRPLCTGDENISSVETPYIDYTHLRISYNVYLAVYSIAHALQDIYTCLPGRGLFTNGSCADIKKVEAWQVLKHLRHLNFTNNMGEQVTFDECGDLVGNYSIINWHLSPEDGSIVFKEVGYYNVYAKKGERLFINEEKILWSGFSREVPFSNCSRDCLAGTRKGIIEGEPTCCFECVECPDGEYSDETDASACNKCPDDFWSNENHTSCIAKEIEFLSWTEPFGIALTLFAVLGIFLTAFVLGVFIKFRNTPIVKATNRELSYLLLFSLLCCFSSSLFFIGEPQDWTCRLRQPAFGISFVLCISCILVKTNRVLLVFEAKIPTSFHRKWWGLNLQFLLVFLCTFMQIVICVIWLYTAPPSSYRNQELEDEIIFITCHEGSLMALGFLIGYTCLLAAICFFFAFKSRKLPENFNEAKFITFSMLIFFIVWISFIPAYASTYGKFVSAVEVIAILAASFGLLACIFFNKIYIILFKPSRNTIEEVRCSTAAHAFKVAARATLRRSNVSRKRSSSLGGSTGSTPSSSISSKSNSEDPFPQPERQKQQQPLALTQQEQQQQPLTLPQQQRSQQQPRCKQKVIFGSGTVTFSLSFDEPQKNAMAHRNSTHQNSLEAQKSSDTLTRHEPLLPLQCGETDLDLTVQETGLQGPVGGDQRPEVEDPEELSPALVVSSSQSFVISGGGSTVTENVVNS
# Experiment: FLIPR Assay for Evaluating the Potency and Selectivity of Test Compounds
# Assay type: cell-based
# Details: HEK 293 cells expressing CasR; 30 minutes pre-incubation; stimulation by 1.7 mM Ca2+; read 42 seconds after stimulation
# From the text: FLIPR Assay for Evaluating the Potency and Selectivity of Test Compounds
# Human kidney cell (HEK 293) expressing the calcium receptor (CasR) are used to detect antagonists of the receptor using Fluorometric imaging plate reader (FLIPR, Molecular Devices, Sunnyvale Calif.). Receptor activation by extracellular calcium results in the release of calcium from intracellular stores into the cytosol. A fluorescent indicator (Fluo-4) is internalized by the cells from growth media and interacts with calcium released into the cytosol to provide a means of quantifying intracellular Ca^2+ levels and receptor agonism/antagonism. Fluorescence intensity is detected by the FLIPR CCD camera and traced as a function of time. Potential antagonists are identified by their ability to decrease this fluorescent response.
# Prior to the addition of test compound cells are washed with a 10 mM HEPES buffer solution. The test compound, for example the compound of Example 1, is added at various doses (from 1 µM to 3 nM) and pre-incubated with cells for 30 minutes followed by stimulation of the CasR by the addition of 1.7 mM Ca^2+. IC50 values are based on the ability of the cells to inhibit the Ca^2+ induced increase in intracellular Ca^2+. Fluorescence signal is read 42 seconds after the stimulation of the CasR by the addition of 1.7 mM Ca^2+.
# The following table provides FLIPR IC50 data for the specified Examples. The IC50s are reported as micromolar concentration with n being the number of times the particular compound was assayed.
row,Compound,pIC50
1,"N#Cc1ccccc1-c1nc2ccnc(C(F)(F)F)c2c(=O)n1CCC1CCCCC1 [Example 62, 2-(3-(2-cyclohexylethyl)-4-oxo-5-(trifluoromethyl)-3,4-dihydropyrido[4,3-d]pyrimidin-2-yl)benzonitrile]",5.33
2,"CN1CCN(c2nccc3nc(-c4ccccc4O)n(CCc4ccccc4)c(=O)c23)CC1 [Example 19, 2-(2-Hydroxy-phenyl)-5-(4-methyl-piperazin-1-yl)-3-phenethyl-3H-pyrido[4,3-d]pyrimidin-4-one]",< 4.00
3,"CC(Cc1ccccc1F)n1c(-c2cscn2)nc2ccnc(C(F)(F)F)c2c1=O (centres unmarked) [Example 65, 3-(1-(2-fluorophenyl)propan-2-yl)-2-(thiazol-4-yl)-5-(trifluoromethyl)pyrido[4,3-d]pyrimidin-4(3H)-one]",4.98
4,"O=c1c2c(N3CCC3)nccc2nc(-c2ccccc2O)n1CCc1ccccc1 [Example 23, 5-Azetidin-1-yl-2-(2-hydroxy-phenyl)-3-phenethyl-3H-pyrido[4,3-]d-pyrimidin-4-one]",4.86
5,"CC(C)COc1nccc2nc(-c3ccccc3O)n(CCc3ccccc3)c(=O)c12 [Example 34, 2-(2-Hydroxy-phenyl)-5-isobutoxy-3-phenethyl-3H-pyrido[4,3-d]pyrimidin-4-one]",5.83
6,"O=c1c2c(C(F)(F)F)nccc2nc(-c2ncccc2C(F)(F)F)n1CCC1CCCCC1 [Example 82, 3-(2-cyclohexylethyl)-5-(trifluoromethyl)-2-(3-(trifluoromethyl)pyridin-2-yl)pyrido[4,3-d]pyrimidin-4(3H)-one]",5.60
7,"O=c1c2c(C(F)(F)F)nccc2nc(-c2ncccc2O)n1CC1CCOCC1 [Example 67, 2-(3-hydroxypyridin-2-yl)-3-((tetrahydro-2H-pyran-4-yl)methyl)-5-(trifluoromethyl)pyrido[4,3-d]pyrimidin-4(3H)-one]",< 6.00
8,"CC(C)Nc1nccc2nc(-c3ccccc3O)n(CCc3ccccc3)c(=O)c12 [Example 17, 2-(2-Hydroxy-phenyl)-5-isopropylamino-3-phenethyl-3H-pyrido[4,3-d]pyrimidin-4-one]",4.96
9,"O=c1c2c(C(F)(F)F)nccc2nc(C2CCCC2)n1CCc1ccccc1 [Example 59, 2-cyclopentyl-3-phenethyl-5-(trifluoromethyl)pyrido[4,3-d]pyrimidin-4(3H)-one]",5.11
10,"O=c1c2c(Cc3ccccc3)nccc2nc(-c2ccccc2O)n1CCc1ccccc1 [Example 25, 5-Benzyl-2-(2-hydroxy-phenyl)-3-phenethyl-3H-pyrido[4,3-d]pyrimidin-4-one]",5.52
11,"Nc1scnc1-c1nc2ccnc(C(F)(F)F)c2c(=O)n1CCc1ccccc1 [Example 78, 2-(5-aminothiazol-4-yl)-3-phenethyl-5-(trifluoromethyl)pyrido[4,3-d]pyrimidin-4(3H)-one]",5.01
12,"O=c1c2c(C(F)(F)F)nccc2nc(-c2ncccc2O)n1C1CCCCC1 [Example 74, 3-cyclohexyl-2-(3-hydroxypyridin-2-yl)-5-(trifluoromethyl)pyrido[4,3-d]pyrimidin-4(3H)-one]",4.32
13,"COc1c(F)cccc1CCn1c(-c2ncccc2O)nc2ccnc(C(F)(F)F)c2c1=O [Example 45, 3-(3-fluoro-2-methoxyphenethyl)-2-(3-hydroxypyridin-2-yl)-5-(trifluoromethyl)pyrido[4,3-d]pyrimidin-4(3H)-one]",5.73

# Further compounds by rising pIC50, results first:
row,pIC50,Compound
1,5.77,"C[C@@H](CC1CCCCC1)n1c(-c2ncccc2O)nc2ccnc(C(F)(F)F)c2c1=O [Example 48b, (S)-3-(1-cyclohexylpropan-2-yl)-2-(3-hydroxypyridin-2-yl)-5-(trifluoromethyl)pyrido[4,3-d]pyrimidin-4(3H)-one]"
2,5.78,"C[C@H](Cc1ccccc1)n1c(C2CCCC2)nc2ccnc(C(F)(F)F)c2c1=O [Example 57, (R)-2-cyclopentyl-3-(1-phenylpropan-2-yl)-5-(trifluoromethyl)pyrido[4,3-d]pyrimidin-4(3H)-one]"
3,5.81,"O=c1c2c(C(F)(F)F)nccc2nc(-c2cscn2)n1CCc1ccccc1F [Example 56, 3-(2-fluorophenethyl)-2-(thiazol-4-yl)-5-(trifluoromethyl)pyrido[4,3-d]pyrimidin-4(3H)-one]"
4,6.15,"O=c1c2c(C(F)(F)F)nccc2nc(-c2cscn2)n1CCc1ccccc1 [Example 54, 3-phenethyl-2-(thiazol-4-yl)-5-(trifluoromethyl)pyrido[4,3-d]pyrimidin-4(3H)-one]"
5,6.24,"CCCOc1nccc2nc(-c3ccccc3O)n(CCc3ccccc3)c(=O)c12 [Example 32, 2-(2-Hydroxy-phenyl)-3-phenethyl-5-propoxy-3H-pyrido[4,3-d]pyrimidin-4-one]"
6,6.32,"O=c1c2c(C(F)(F)F)nccc2nc(-c2ncccc2O)n1CCC1CCCCO1 (racemic) [Example 49, (R, S)-2-(3-hydroxypyridin-2-yl)-3-(2-(tetrahydro-2H-pyran-2-yl)ethyl)-5-(trifluoromethyl)pyrido[4,3-d]pyrimidin-4(3H)-one]"
7,6.38,"N#Cc1ccccc1-c1nc2cccc(C(F)(F)F)c2c(=O)n1CCc1ccccc1F [Example 71, 2-(3-(2-fluorophenethyl)-4-oxo-5-(trifluoromethyl)-3,4-dihydroquinazolin-2-yl)benzonitrile]"
8,6.42,"CC(C)Oc1nccc2nc(-c3ccccc3O)n(CCc3ccccc3)c(=O)c12 [Example 35, 2-(2-Hydroxy-phenyl)-5-isopropoxy-3-phenethyl-3H-pyrido[4,3-d]pyrimidin-4-one]"
9,6.52,"O=c1c2c(C(F)(F)F)nccc2nc(-c2ncccc2C(F)F)n1CCc1ccccc1 [Example 80, 2-(3-(difluoromethyl)pyridin-2-yl)-3-phenethyl-5-(trifluoromethyl)pyrido[4,3-d]pyrimidin-4(3H)-one]"
10,6.59,"C[C@H](Cc1ccccc1)n1c(-c2cscn2)nc2ccnc(C(F)(F)F)c2c1=O [Example 53, (R)-3-(1-phenylpropan-2-yl)-2-(thiazol-4-yl)-5-(trifluoromethyl)pyrido[4,3-d]pyrimidin-4(3H)-one]"
11,6.77,"O=c1c2c(C(F)(F)F)nccc2nc(-c2ncccc2O)n1CCc1ccc(F)cc1F [Example 14, 3-[2-(2,4-Difluoro-phenyl)-ethyl]-2-(3-hydroxy-pyridin-2-yl)-5-trifluoromethyl-3H-pyrido[4,3-d]pyrimidin-4-one]"
12,6.80,O=c1c2c(C(F)(F)F)nccc2nc(-c2ccccc2O)n1CCc1ccc(F)c(F)c1 [Example 15]
13,6.92,"Cc1cc2nc(-c3ccccc3O)n(CCc3ccccc3)c(=O)c2c(C(F)(F)F)n1 [Example 10, 2-(2-Hydroxy-phenyl)-7-methyl-3-(phenyl-ethyl)-5-trifluoromethyl-3H-pyrido[4,3-d]pyrimidin-4-one]"
14,7.05,O=c1c2c(C(F)(F)F)nccc2nc(-c2ccccc2O)n1CCc1cccc(F)c1 [Example 8]
15,7.30,"O=c1c2c(C(F)(F)F)nccc2nc(-c2ccccc2O)n1CCc1ccccc1 [Example 1, 2-(2-Hydroxy-phenyl)-3-phenethyl-5-trifluoromethyl-3H-pyrido[4,3-d]pyri-midin-4-one]"
16,7.30,"CC(Cc1ccccc1F)n1c(-c2ncccc2O)nc2ccnc(C(F)(F)F)c2c1=O (racemic) [Example 6, (R, S)-2-(3-Hydroxy-pyridin-2-yl)-3-(1-methyl-2-(2-fluorophenyl)ethyl)-5-trifluoromethyl-3H-pyrido[4,3-d]pyrimidin-4-one]"
